Where “and” joins values, the source holds several entries; their conditions need not be identical. Equal entries are not always repeated. Where two headings read alike, the source gives them in different places.
Columns and labels:
[1] = test system: Human Immunodeficiency virus (HIV-1, LAI isolate) replication in CEM TK- cells; assay: Anti-HIV activity on CEM TK- cells; format: cell-based; settings: Human immunodeficiency virus 1, CEM-TK(-), read-out: EC50 (anti-HIV)
Experimental: The experimental procedure used for evaluation of activities against Human Immunodeficiency virus (HIV) is as follows:
HIV-1 replication (LAI isolate) in CEM cells are measured by assaying for […] (RTase) in the culture supernatant after infection for five days. This activity reflects the presence of the virus released by the cells. After absorption of the virus, the test compounds are added at various concentrations in the culture medium. Antiviral activity is expressed as the lowest concentration of compound which reduces the vital production by at least 50% (ED50)
(§1) 2. Anti-HIV activity on CEM TK- cells of Bis(S-acyl-2-thioethyl) phosphotriesters derivatives of acyclovir, as compared with those of the parent nucleoside and of AZT are shown in Table 2.
In Table 2, EC50 represents the molar concentration which produces a 50% inhibition of HIV replication. Significant inhibition is shown.

[2] = in vitro; format: cell-based; settings: human, cem cells
Experimental: The toxic effect on non-infected CEMs is assessed by a […] reaction based on the capacity of living cells to reduce 3-(4,5 dimethylthiazol-2-yl)-2,5 diphenyltetrazolium bromide into formazan after incubation for five days in the presence of various concentrations of the compounds. The results are expressed as the lowest concentration of compound which results in at least 50% inhibition of the formation of formazan (CD50).
as §1

[3] = Viability of non-infected cells (CC50, Table 1); format: cell-based; settings: human, hepg2 2.2.15 cells, reduces viability of non-infected cells by 50%
From the text: (§2) The experimental procedure used for evaluation of activity against Hepatitis B virus is as previously described by Korba and Milman in Antiviral Res. […].
(§3) 1. Anti-HBV activity on transfected HepG2 (2.2.15) cells of Bis(S-acyl-2-thioethyl)phosphotriester derivatives of Acyclovir, (compound 9 of Figure I), as compared with those of the parent nucleoside and of 2',3'-dideoxyguanosine (ddG) and 2',3'-dideoxycytidine (ddC) are shown in Table 1.
(§4) In Table 1, EC90 and EC50 represent the molar concentrations which provide respectively a 90% and a 50% inhibition of HBV replication. CC50 represents the molar concentration which reduces the viability of non-infected cells by 50%.

[4] = test system: Epstein-Barr virus; settings: background; thymidine kinase activity reduced or missing; cited from earlier work
[5] = test system: HSV-1 TK- in MRC-5 cells; assay: Anti-HSV activity on MRC-5 cells, HSV-1 TK-; format: cell-based, Herpes simplex virus type 1 TK-; settings: Human alphaherpesvirus 1, MRC5, read-out: HSV-1 TK- EC50
From the text: (§5) The experimental procedure used for evaluation of activities against Herpes simplex virus type 1 (HSV-1) is the as described by Genu-Dellac et al. in Nucleosides and Nucleotides, 10, 1345, (1991).
(§6) 3. Anti HSV activity on MRC-5 cells of Bis(S-acyl-2thioethyl)phosphotriesters derivatives of acyclovir is compared to that of Acyclovir in Table 3.
(§7) EC50 represents the molar concentration which produces a 50% inhibition of HSV-1 replication. Significant activity is shown.

[6] = test system: Herpes Simplex virus (HSV); settings: background; due to selective monophosphorylation by HSV thymidine kinase; cited from earlier work
[7] = test system: Hepatitis B virus (HBV) replication, HBV virion, in transfected HepG2 (2.2.15) cells; assay: Anti-HBV activity on transfected HepG2 (2.2.15) cells (HBV virion); format: cell-based; settings: for EC50: 50% inhibition of HBV replication; for EC90: 90% inhibition of HBV replication; for SI: SI = CC50/EC90
From the text: as §2, §3, §4

[8] = test system: Hepatitis B virus (HBV); settings: background; cited from earlier work
[9] = test system: Cytomegalovirus; settings: background; thymidine kinase activity reduced or missing; cited from earlier work
[10] = test system: Herpes simplex virus type 1 (HSV-1) in MRC-5 cells; assay: Anti-HSV activity on MRC-5 cells, HSV-1; format: cell-based; settings: Human alphaherpesvirus 1, MRC5, 50% inhibition of HSV-1 replication
From the text: as §5, §6, §7

[11] = test system: Human Immunodeficiency virus (HIV); settings: background; cited from earlier work
[12] = test system: HepG2 (2.2.15) cells; assay: Viability of non-infected cells (CC50, Table 1); format: cell-based; settings: reduces viability of non-infected cells by 50%
From the text: as §2, §3, §4

[13] = Hepatitis B virus, HepG2 2.2.15, read-out: HBV virion EC50, transfected HepG2 (2.2.15) cells
[14] = Hepatitis B virus, HepG2 2.2.15, transfected HepG2 (2.2.15) cells
[15] = Hepatitis B virus, HepG2 2.2.15, transfected HepG2 (2.2.15) cells, read-out: HBV virion EC50

Row | SMILES | EC50 [1] [µM] | CC50 at 120 h [2] [µM] | cytotoxicity at 120 h, 100 µM [2] [%] | CC50 [3] [µM] | activity against Epstein-Barr virus (in words) [4] | EC50 [5] [µM] | anti-herpetic activity (in words) [6] | EC50 [7, 13] [µM] | EC90 [7, 14] [µM] | activity against HBV (in words) [8] | activity against Cytomegalovirus (in words) [9] | EC50 [10] [µM] | activity against HIV (in words) [11] | EC50 [7, 15] [µM] | SI [7] | cytotoxicity at 120 h, 10 µM [2] [%] | CC50 [12] [µM] | EC50 ([7]; transfected HepG2 (2.2.15) cells, read-out: HBV virion EC50) [µM]
1 | Cc1cn([C@H]2C[C@H](N=[N+]=[N-])[C@@H](CO)O2)c(=O)[nH]c1=O [AZT] | > 100 | > 100 | 5 | – | – | – | – | – | – | – | – | – | – | – | – | – | – | –
2 | Nc1nc2c(ncn2COCCO)c(=O)[nH]1 [Acyclovir, acyclovir] | > 100 | > 100 | 0 | 631 ± 40 | poorly active | > 100 | anti-herpetic activity | 111 ± 15 | > 100 | no activity | poorly active | 0.63 | no activity | – | – | – | – | –
3 | CC(C)(C)C(=O)SCCOP(=O)(OCCOCn1cnc2c(=O)[nH]c(N)nc21)OCCSC(=O)C(C)(C)C [Bis(SPTE)ACVMP, O-[1-(Methyl-[9-guanin-yl]) -1-hydroxyethyl-2-yl]-O',O"-bis(S-pivaloyl-2-thioethyl) phosphate] | 3.6 | > 10 | – | 1590 ± 131 | – | 10 | – | – | 7.1 ± 0.8 | – | – | 2.5 | – | 0.2 ± 0.04 | 224 | 26 | – | –
4 | Nc1ccn([C@H]2CC[C@@H](CO)O2)c(=O)n1 [ddC, 2',3'-dideoxycytidine] | – | – | – | 219 ± 19 | – | – | – | 1.3 ± 0.2 | – | – | – | – | – | – | 20 and 30 | – | 218 ± 19 | 2.2 ± 0.3
5 | CC(=O)SCCOP(=O)(OCCOCn1cnc2c(=O)[nH]c(N)nc21)OCCSC(C)=O [Bis(SATE)ACVMP, O-[1-(Methyl-[9-guanin-yl])-1-hydroxyethyl-2-yl]-O',O"-bis(S-acetyl-2-thioethyl) phosphate] | 77 | > 100 | 0 | 987 ± 99 | – | 100 | – | – | 5.1 ± 1 | – | – | 1.25 | – | 0.7 ± 0.1 | 194 | – | – | –
